Measured values: patent US20260232767A1, “INTERLEUKIN-23 RECEPTOR ANTAGONIST PEPTIDES FOR USE IN THE TREATMENT OF PSORIASIS” (Janssen Pharmaceutica NV, priority 2023, published 2026)

System: subjects with moderate-to-severe plaque psoriasis
Test: Safety, adverse events, Example 2 through Week 56
Assay type: in vivo, human
Details: 50 mg QD
Text: The LTE safety analysis was based on randomized participants in Example who entered the present long-term extension study and received at least one dose of study intervention (including a partial dose) during the study period.

SMILES: CC(=O)NCCCC[C@@H]1NC(=O)[C@H](Cc2c[nH]c3c(C)cccc23)NC(=O)[C@H]([C@@H](C)O)NC(=O)[C@H](CC(N)=O)NC(=O)[C@@H](NC(C)=O)C(C)(C)SSC(C)(C)[C@@H](C(=O)N[C@@H](Cc2ccc(OCCN)cc2)C(=O)N[C@@H](Cc2ccc3ccccc3c2)C(=O)NC2(C(=O)N[C@@H](CCC(=O)O)C(=O)N[C@@H](CC(N)=O)C(=O)N[C@@H](Cc3cccnc3)C(=O)N(C)CC(N)=O)CCOCC2)NC1=O [IL-23 receptor antagonist peptide, Ac-[Pen]*-N-T-[W(7-Me)]-[Lys(Ac)]-[Pen]*-Phe[4-(2-aminoethoxy)]-[2-Nal]-[THP]-E-N-[3-Pal]-Sarc-NH2 (*[Pen]-[Pen]* formdisulfidebond)]
- Subjects with AE leading to discontinuation: Insomnia (Week 16-56): 0
- Subjects with AE leading to discontinuation: Investigations (Week 16-56): 0
- Subjects with AE leading to discontinuation: Nervous system disorders (Week 16-56): 0
- Subjects with AE leading to discontinuation: Proctalgia (Week 16-56): 0
- Subjects with AE leading to discontinuation: Psoriasis (Week 16-56): 0
- Subjects with AE leading to discontinuation: Psychiatric disorders (Week 16-56): 0
- Subjects with AE leading to discontinuation: Skin and subcutaneous tissue disorders (Week 16-56): 0
- Subjects with AE leading to discontinuation: Vertigo (Week 16-56): 0
- Subjects with AE leading to discontinuation: Vomiting (Week 16-56): 0
- Subjects with COVID-19 associated AE of interest: SARS-CoV-2 test positive (Week 16-56): 0
- Subjects with treatment-emergent AE: Headache (Week 16-56): 0
- Subjects with treatment-emergent AE: Meniscus injury (Week 16-56): 0
- Subjects with treatment-emergent AE: Nervous system disorders (Week 16-56): 0
- Subjects with treatment-emergent AE: Vomiting (Week 16-56): 0
- Subjects with treatment-emergent serious AE: Cerebrovascular accident (Week 16-56): 0
- Subjects with treatment-emergent serious AE: Diverticulitis (Week 16-56): 0
- Subjects with treatment-emergent serious AE: Infections and infestations (Week 16-56): 0
- Subjects with treatment-emergent serious AE: Injury, poisoning and procedural complications (Week 16-56): 0
- Subjects with treatment-emergent serious AE: Intervertebral disc protrusion (Week 16-56): 0
- Subjects with treatment-emergent serious AE: Ligament injury (Week 16-56): 0
- Subjects with treatment-emergent serious AE: Neoplasms benign, malignant and unspecified (incl cysts and polyps) (Week 16-56): 0
- Subjects with treatment-emergent serious AE: Nervous system disorders (Week 16-56): 0
- Subjects with treatment-emergent serious AE: Respiratory, thoracic and mediastinal disorders (Week 16-56): 0
- Subjects with treatment-emergent serious AE: Tonsillar hypertrophy (Week 16-56): 0
- Subjects with treatment-emergent serious AE: Uterine leiomyoma (Week 16-56): 0
- Subjects with treatment-emergent serious AE: Ventricular dysfunction (Week 16-56): 0
- Acrochordon: number of subjects (through Week 56): 0
- Actinic keratosis: % of subjects (through Week 56): (2.3%)
- Actinic keratosis: number of subjects (through Week 56): 1
- Alopecia: number of subjects (through Week 56): 0
- Asthenia: number of subjects (through Week 56): 0
- Asthma: number of subjects (through Week 56): 0
- Atrioventricular block first degree: number of subjects (through Week 56): 0
- Basal cell carcinoma: % of subjects (through Week 56): (2.3%)
- Basal cell carcinoma: number of subjects (through Week 56): 1
- Blood and lymphatic system disorders: % of subjects (through Week 56): (7.0%)
- Blood and lymphatic system disorders: number of subjects (through Week 56): 3
- Bronchitis chronic: number of subjects (through Week 56): 0
- Bundle branch block right: number of subjects (through Week 56): 0
- Cardiac disorders: % of subjects (through Week 56): (2.3%)
- Cardiac disorders: number of subjects (through Week 56): 1
- Chills: number of subjects (through Week 56): 0
- Cholelithiasis: number of subjects (through Week 56): 0
- Chronic obstructive pulmonary disease: number of subjects (through Week 56): 0
- Coronary artery disease: % of subjects (through Week 56): (2.3%)
- Coronary artery disease: number of subjects (through Week 56): 1
- Cough: % of subjects (through Week 56): (4.7%)
- Cough: number of subjects (through Week 56): 2
- Decreased appetite: number of subjects (through Week 56): 0
- Depression: number of subjects (through Week 56): 0
- Dermal cyst: number of subjects (through Week 56): 0
- Dermatitis acneiform: number of subjects (through Week 56): 0
- Dermatitis contact: % of subjects (through Week 56): (2.3%)
- Dermatitis contact: number of subjects (through Week 56): 1
- Diabetes mellitus: number of subjects (through Week 56): 0
- Diffuse alopecia: number of subjects (through Week 56): 0
- Dysuria: number of subjects (through Week 56): 0
- Ear and labyrinth disorders: number of subjects (through Week 56): 0
- Endocrine disorders: number of subjects (through Week 56): 0
- Eye disorders: number of subjects (through Week 56): 0
- Eyelid skin dryness: number of subjects (through Week 56): 0
- Fatigue: % of subjects (through Week 56): (2.3%)
- Fatigue: number of subjects (through Week 56): 1
- General disorders and administration site conditions: % of subjects (through Week 56): (7.0%)
- General disorders and administration site conditions: number of subjects (through Week 56): 3
- Goiter: number of subjects (through Week 56): 0
- Haemochromatosis: number of subjects (through Week 56): 0
- Hand dermatitis: number of subjects (through Week 56): 0
- Hematuria: % of subjects (through Week 56): (2.3%)
- Hematuria: number of subjects (through Week 56): 1
- Hepatobiliary disorders: number of subjects (through Week 56): 0
- Hypercholesterolemia: number of subjects (through Week 56): 0
- Hyperglycemia: % of subjects (through Week 56): (2.3%)
- Hyperglycemia: number of subjects (through Week 56): 1
- Hyperlipidemia: number of subjects (through Week 56): 0
- Hypertension: % of subjects (through Week 56): (2.3%)
- Hypertension: number of subjects (through Week 56): 1
- Hypertransaminasemia: number of subjects (through Week 56): 0
- Hypertriglyceridemia: number of subjects (through Week 56): 0
- Hypoacusis: number of subjects (through Week 56): 0
- Immune system disorders: % of subjects (through Week 56): (2.3%)
- Immune system disorders: number of subjects (through Week 56): 1
- Influenza like illness: number of subjects (through Week 56): 0
- Insomnia: number of subjects (through Week 56): 0
- Intertrigo: number of subjects (through Week 56): 0
- Ketonuria: number of subjects (through Week 56): 0
- Leukocyturia: number of subjects (through Week 56): 0
- Leukopenia: % of subjects (through Week 56): (2.3%)
- Leukopenia: number of subjects (through Week 56): 1
- Libido decreased: number of subjects (through Week 56): 0
- Liver disorder: number of subjects (through Week 56): 0
- Lymphopenia: % of subjects (through Week 56): (4.7%)
- Lymphopenia: number of subjects (through Week 56): 2
- Menopause: % of subjects (through Week 56): (2.3%)
- Menopause: number of subjects (through Week 56): 1
- Metabolism and nutrition disorders: % of subjects (through Week 56): (2.3%)
- Metabolism and nutrition disorders: number of subjects (through Week 56): 1
- Neoplasms benign, malignant and unspecified (incl cysts and polyps): % of subjects (through Week 56): (4.7%)
- Neoplasms benign, malignant and unspecified (incl cysts and polyps): number of subjects (through Week 56): 2
- Nephrolithiasis: number of subjects (through Week 56): 0
- Neutropenia: % of subjects (through Week 56): (4.7%)
- Neutropenia: number of subjects (through Week 56): 2
- Night sweats: % of subjects (through Week 56): (2.3%)
- Night sweats: number of subjects (through Week 56): 1
- Non-cardiac chest pain: % of subjects (through Week 56): (2.3%)
- Non-cardiac chest pain: number of subjects (through Week 56): 1
- Ocular cyst: number of subjects (through Week 56): 0
- Oedema peripheral: % of subjects (through Week 56): (2.3%)
- Oedema peripheral: number of subjects (through Week 56): 1
- Oropharyngeal pain: number of subjects (through Week 56): 0
- Procedural pain: number of subjects (through Week 56): 0
- Productive cough: number of subjects (through Week 56): 0
- Proteinuria: number of subjects (through Week 56): 0
- Pruritus: % of subjects (through Week 56): (2.3%)
- Pruritus: number of subjects (through Week 56): 1
- Psoriasis: number of subjects (through Week 56): 0
- Psychiatric disorders: number of subjects (through Week 56): 0
- Pyrexia: number of subjects (through Week 56): 0
- Rash pruritic: number of subjects (through Week 56): 0
- Renal and urinary disorders: % of subjects (through Week 56): (2.3%)
- Renal and urinary disorders: number of subjects (through Week 56): 1
